Experimental data reported in patent US20050282755A1, “Compositions having antimicrobial activity and uses thereof” (priority 2004, published 2005).
In brackets after ≈: the same amount, converted by molar mass. Starred links: 1 amine or outer side, 2 acyl side, 3 side chain; linkers in the order of their positions; H or OH if unused. Non-standard residues stand in square brackets, D forms with d. Residues, ends and D or L forms follow the SMILES beside them. *: point of attachment. 1Nal = N[C@@H](Cc1cccc2ccccc12)C(=O)O; Ethylenediamine = C(CN[*:2])N[*:1]; Lauroyl = CCCCCCCCCCCC(=O)*; Octanoyl = CCCCCCCC(=O)*

Experiments:
Format in all cases: cell-based
[1] = tested on: Staphylococcus aureus ATCC 29213; test: MIC, NCCLS M7-A6 broth microdilution, cation-adjusted Mueller Hinton broth (Table 9, no superscript); conditions: ATCC 29213
Procedure, shortened: (§1)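 Values come from a broth microdilution assay run in cation-adjusted Mueller Hinton broth with an inoculum of 5×10^5 to 1×10^6 CFU/milliliter, incubated overnight at 37° C and read as absence of visible turbidity.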

[2] = tested on: Escherichia coli ATCC 25922; test: MIC, NCCLS M7-A6 broth microdilution (Table 9, no superscript); conditions: ATCC 25922
Procedure, shortened: as §1

Salmonella dublin (Lane) = test: as above
Procedure, shortened: as §1

[3] = tested on: Staphylococcus epidermidis ATCC 12228; test: as above; conditions: ATCC 12228
Procedure, shortened: as §1

[4] = tested on: Pseudomonas aeruginosa ATCC 27853; test: as above; conditions: ATCC 27853
Procedure, shortened: as §1

[5] = tested on: Propionibacterium acnes ATCC 6919; test: MIC, agar dilution method NCCLS M11-A6, Brucella agar, anaerobic (Table 9, superscript c); conditions: ATCC 6919
Description: A bacterial suspension was prepared to allow for a final inoculum on the plate of 1.5×10^8 CFU/milliliter. After the suspension absorbed into the agar surface, the plates were incubated for 48-96 hours at 37° C. in a GasPak anaerobic chamber. The lowest concentration of peptide that contained no colony growth on the agar plate was determined as the MIC. MIC values that utilized this method of MIC determination are indicated in Table 9 with a superscript letter “c.”

Compound | MIC S. aureus [1] [µg/mL] | MIC E. coli [2] [µg/mL] | MIC S. dublin (Salmonella dublin (Lane)) [µg/mL] | MIC S. epidermidis [3] [µg/mL] | MIC P. aeruginosa [4] [µg/mL] | MIC P. acnes [5] [c ug/mL]
CCCCCCCCCCCC(=O)N[C@@H](C(=O)N[C@H](CCCNC(=N)N)C(=O)N[C@@H](C(=O)N[C@H](CO)C(=O)N[C@H](CCCNC(=N)N)C(=O)N[C@@H](C(=O)NCC(=O)N[C@H](CCCNC(=N)N)C(=O)N[C@H](CO)C(=O)N[C@H](CCCNC(=N)N)C(=O)N[C@H](Cc1c[nH]c2ccccc12)C(=O)N[C@H](CCCNC(=N)N)C(=O)N[C@H](CC(=O)O)C(=O)N[C@H](Cc1c[nH]c2ccccc12)C(=O)N[C@H](CO)C(=O)N[C@H](CCCNC(=N)N)C(=O)N[C@H](CC(N)=O)C(=O)N[C@H](Cc1ccccc1)C(=O)N[C@H](CCSC)C(=O)N[C@H](CCCNC(=N)N)C(=O)N[C@H](C)C(=O)N[C@H](C)C(=O)N[C@@H](CCCCN)C(N)=O)[C@H](C)O)C(C)C)[C@H](C)O [Peptide 80, Lauryl-trvsrtgrsrwrdwsrnfmraaK-NH2] (Lauroyl-[dT][dR][dV][dS][dR][dT]G[dR][dS][dR][dW][dR][dD][dW][dS][dR][dN][dF][dM][dR][dA][dA]K-NH2) | 16 (≈ 5.22 µM) | 32 (≈ 10.4 µM) | 16 (≈ 5.22 µM) | 2 (≈ 0.653 µM) | >64 | >64
CCCCCCCCCCCC(=O)N[C@H](CCCNC(=N)N)C(=O)N[C@H](CO)C(=O)N[C@H](CCCNC(=N)N)C(=O)N[C@H](Cc1c[nH]c2ccccc12)C(=O)N[C@H](CCCNC(=N)N)C(=O)N[C@H](CC(=O)O)C(=O)N[C@@H](C(=O)N[C@H](C)C(=O)N[C@H](CCCNC(=N)N)C(=O)N[C@H](CC(N)=O)C(=O)N[C@H](Cc1ccccc1)C(=O)N[C@H](CC(C)C)C(=O)N[C@H](CCCNC(=N)N)C(N)=O)C(C)C [Peptide 210, Lauryl-rsrwrdvarnflr-NH2] (Lauroyl-[dR][dS][dR][dW][dR][dD][dV][dA][dR][dN][dF][dL][dR]-NH2) | 4 (≈ 2.09 µM) | 8 (≈ 4.18 µM) | 4 (≈ 2.09 µM) | 2 (≈ 1.05 µM) | 16 (≈ 8.36 µM) | 8
CCCCCCCCCCCC(=O)N[C@@H](CCCNC(=N)N)C(=O)N[C@@H](CO)C(=O)N[C@@H](CCCNC(=N)N)C(=O)N[C@@H](Cc1c[nH]c2ccccc12)C(=O)N[C@@H](CCCNC(=N)N)C(=O)N[C@@H](CC(=O)O)C(=O)N[C@@H](Cc1cccc2ccccc12)C(=O)N[C@@H](C)C(=O)N[C@@H](CCCNC(=N)N)C(=O)N[C@@H](CC(N)=O)C(=O)N[C@@H](Cc1ccccc1)C(=O)N[C@@H](CCSC)C(=O)N[C@@H](CCCNC(=N)N)C(N)=O [Peptide 150, Lauryl-RSRWRDZARNFMR-NH2 Z = 1-naphthylalanine] (Lauroyl-RSRWRD[1Nal]ARNFMR-NH2) | 8 (≈ 3.94 µM) | 64 (≈ 31.5 µM) | 32 (≈ 15.8 µM) | 4 (≈ 1.97 µM) | >64 | >64
CCCCCCCCCCCC(=O)N[C@@H](CCCNC(=N)N)C(=O)N[C@@H](Cc1c[nH]c2ccccc12)C(=O)N[C@@H](CCCNC(=N)N)C(=O)N[C@@H](CC(=O)O)C(=O)N[C@@H](CC(C)C)C(=O)N[C@@H](C)C(=O)N[C@@H](CCCNC(=N)N)C(N)=O [Peptide 241, Lauryl-RWRDLAR-NH2] (Lauroyl-RWRDLAR-NH2) | 4 (≈ 3.47 µM) | 32 (≈ 27.7 µM) | 16 (≈ 13.9 µM) | 8 (≈ 6.94 µM) | 32 (≈ 27.7 µM) | 64
CCCCCCCCCCCC(=O)N[C@H](CCCNC(=N)N)C(=O)N[C@H](C)C(=O)N[C@H](CCCNC(=N)N)C(=O)N[C@H](Cc1c[nH]c2ccccc12)C(=O)N[C@H](CCCNC(=N)N)C(=O)N[C@H](CC(=O)O)C(=O)N[C@@H](C(=O)N[C@H](C)C(=O)N[C@H](CCCNC(=N)N)C(=O)N[C@H](CC(N)=O)C(=O)N[C@H](Cc1ccccc1)C(=O)N[C@H](CC(C)C)C(=O)N[C@H](CCCNC(=N)N)C(N)=O)C(C)C [Peptide 224, Lauryl-rarwrdvarnflr-NH2] (Lauroyl-[dR][dA][dR][dW][dR][dD][dV][dA][dR][dN][dF][dL][dR]-NH2) | 2 (≈ 1.05 µM) | 8 (≈ 4.22 µM) | 4 (≈ 2.11 µM) | 2 (≈ 1.05 µM) | 16 (≈ 8.43 µM) | 32
CCCCCCCCCCCC(=O)N[C@@H](CCCNC(=N)N)C(=O)N[C@@H](Cc1c[nH]c2ccccc12)C(=O)N[C@@H](CCCNC(=N)N)C(=O)N[C@@H](CC(=O)O)C(=O)N[C@H](C(=O)N[C@@H](C)C(=O)N[C@@H](CCCNC(=N)N)C(=O)N[C@@H](CC(N)=O)C(=O)N[C@@H](Cc1ccccc1)C(=O)N[C@@H](CCSC)C(=O)N[C@@H](CCCNC(=N)N)C(N)=O)C(C)C [Peptide 113, Lauryl-RWRDVARNFMR-NH2] (Lauroyl-RWRDVARNFMR-NH2) | 4 (≈ 2.37 µM) | 8 (≈ 4.74 µM) | 16 (≈ 9.48 µM) | 2 (≈ 1.18 µM) | >64 | >64
CCCCCCCC(=O)NCCNC(=O)[C@H](CCCNC(=N)N)NC(=O)[C@H](CC(C)C)NC(=O)[C@H](Cc1ccccc1)NC(=O)[C@H](CC(N)=O)NC(=O)[C@H](CCCNC(=N)N)NC(=O)[C@H](C)NC(=O)[C@@H](NC(=O)[C@H](CC(=O)O)NC(=O)[C@H](CCCNC(=N)N)NC(=O)[C@H](Cc1c[nH]c2ccccc12)NC(=O)[C@H](CCCNC(=N)N)NC(=O)[C@H](CO)NC(=O)[C@@H](N)CCCNC(=N)N)C(C)C [Peptide 169, H2N-RSRWRDVARNFLR-Ethylamidooctanyl] (H-RSRWRDVARNFLR-{Ethylenediamine-Octanoyl}; C-terminus assumed) | 4 (≈ 2.1 µM) | 2 (≈ 1.05 µM) | 8 (≈ 4.21 µM) | 1 (≈ 0.526 µM) | 4 (≈ 2.1 µM) | 64
CCCCCCCCCCCC(=O)N[C@H](CCCNC(=N)N)C(=O)N[C@H](CCCCN)C(=O)N[C@H](CCCNC(=N)N)C(=O)N[C@H](Cc1c[nH]c2ccccc12)C(=O)N[C@H](CCCNC(=N)N)C(=O)N[C@H](CCC(=O)O)C(=O)N[C@@H](C(=O)N[C@H](C)C(=O)N[C@H](CCCNC(=N)N)C(=O)N[C@H](CC(N)=O)C(=O)N[C@H](Cc1ccccc1)C(=O)N[C@H](CC(C)C)C(=O)N[C@H](CCCNC(=N)N)C(N)=O)C(C)C [Peptide 220, Lauryl-rkrwrevarnflr-NH2] (Lauroyl-[dR][dK][dR][dW][dR][dE][dV][dA][dR][dN][dF][dL][dR]-NH2) | 2 (≈ 1.02 µM) | 4 (≈ 2.03 µM) | 2 (≈ 1.02 µM) | 1 (≈ 0.508 µM) | 8 (≈ 4.06 µM) | 16
CCCCCCCCCCCC(=O)N[C@@H](CCCNC(=N)N)C(=O)N[C@@H](Cc1c[nH]c2ccccc12)C(=O)N[C@@H](CCCNC(=N)N)C(=O)N[C@@H](C)C(=O)N[C@H](C(=O)N[C@@H](C)C(=O)N[C@@H](CCCNC(=N)N)C(N)=O)C(C)C [Peptide 243, Lauryl-RWRAVAR-NH2] (Lauroyl-RWRAVAR-NH2) | 4 (≈ 3.65 µM) | 32 (≈ 29.2 µM) | >64 | 2 (≈ 1.83 µM) | >64 | >64
